Measured values from patent US20210169985A1, “METHODS FOR TREATING GRAM POSITIVE BACTERIAL INFECTION” (INSERM (Institut National de la Santé et de la Recherche …, priority 2018, published 2021).
Entries after “also recorded” stand apart in the source; their conditions may differ. *1 amine or outer side, *2 acyl side, *3 side chain or, on linkers, in order; H or OH if unused. Where a SMILES comes first, the peptide text is derived from it. Bridges are numbered along the chain shown (N, C = ends). Roman numbers before positions name the chains, in order. [ ]: non-standard residue; d: D form. Actinocin(9to1) = Cc1c2oc3c(C)ccc(C(=O)[*:1])c3nc-2c(C(=O)[*:2])c(N)c1=O; NMeV = CN[C@H](C(=O)O)C(C)C; Sar = CNCC(=O)O

Legend:
[1] = system: CXCL1 production in keratinocytes; experiment: Cytokine quantification in supernatant of murine primary keratinocytes; format: cell-based; details: for effect of inhibitor on hepcidin-induced CXCL1 production: murine primary keratinocytes with 3.6 μM hepcidin, inhibitor added 30 minutes before (FIG. 2C); for CXCL1 levels in the cell culture supernatant: 3 hours; for CXCL1 production by keratinocytes: stimulated 1 or 3 hours vs PBS
Method: Keratinocytes were isolated from the skin of 2-day-old WT or Hepc^Δkerat mice, based on modifications from a previously described protocol^8. In brief, dermis were easily separated from epidermis after floating newborn mice skin on freshly thawed cold trypsin 0.25% (thermo fisher 15050065) overnight at 4° C. with the dermis side down. Cells were isolated in stop trypsin medium (DMEM, high glucose, no glutamine, no calcium (thermo fisher 21068028) containing 20% heat inactivated and Chelex (Bio rad 1421253) treated—FBS, 1% GlutaMAXSupplement (thermo fisher 35050061), 1% Sodium Pyruvate (thermo fisher 11360070), 100 U/ml Penicillin, 100 μg/ml Streptomycin (thermo fisher), 2.5 μg/ml Amphotericin B (Gibco)).
Keratinocytes were obtained by epidermis mechanical dissociation through shaking at 350 rpm for 1 hour at 37° C. The resulting cell suspension was filtered through 100 μm filter, centrifuged at 250 g for 10 min at 4° C., plated on fibronectin and bovine collagen I coated tissue culture plate and incubated at 37° C. in a humidified 5% CO2 atmosphere. The cells were cultured in 0.07 mM calcium medium (low Ca^2+) containing EGF (10 ng/ml) and cholera toxin (10^−10 mol/L). Once confluence reached, cells were switched in 1.2 mM calcium medium (high Ca^2+) in order to assure their differentiation. After three days in high Ca′ cells were differentiated and suitable for different experiments.
(§1) Keratinocytes, previously starved of FBS for 1 hour, were treated with 1 or 10 μg/ml hepcidin (Peptide International) and incubated for different time points. In some experiments, inhibitors were added 30 minutes before hepcidin treatment during FBS starving: brefaldin A (sigma B7651), cycloheximide (sigma C7698), actinomycinD (sigma A1410). The cells were lysed with Tri reagent (sigma) while supernatant cytokines were measured with the V-PLEX Proinflammatory Panel1 kit (Meso Scale Discovery), according to the manufacturer's instruction.

[2] = system: GAS NZ131; experiment: GAS growth inhibition (bacteriostatic) assay; format: cell-based, Group A Streptococcus; details: in vitro, overnight growth, hepcidin and LL-37 at the same concentration (FIG. 3A)
Method: (§2) As previously described, 9 GAS NZ131 were grown in Todd Hewitt Broth (THB, Sigma) plus 0.3% yeast extract to early log phase (absorbance at 600 nm, A600=0,2). Bacteria were then diluted in THB to A600=0,001 (≈2×10^5 colony forming units (c.f.u.) m1-1). This bacterial suspension was kept growing overnight at 37° C. in presence of PBS, LL-37, hepcidin (peptide international) or penicillin G (sigma P7794). For antimicrobial killing kinetics, exponential phase GAS (A600=0,4) was exposed to PBS or LL-37 or hepcidin and incubated at 37° C. At different time point serial dilutions of these bacterial suspensions were plated on THA plate for counting surviving c.f.u.

[3] = system: GAS NZ131; experiment: GAS antimicrobial killing kinetics (bactericidal) assay; format: cell-based, Group A Streptococcus; details: added to the culture medium at 4 μg/ml (FIG. 3B; legend says 32 μM)
Method: as §2

[4] = system: CXCL1 mRNA; experiment: CXCL1 mRNA expression by Q-PCR in primary keratinocytes; format: cell-based, murine; details: WT primary keratinocytes, 1 and 3 hours, 360 nM or 3.6 μM (FIG. 2B)
Method: RNA extraction, reverse transcription and quantitative PCR have been performed as previously described {Zumerle, 2014 #46}. All samples were normalized to the threshold cycle value for cyclophilin-A.
as §1

[5] = system: GAS; experiment: Therapeutic treatment in GAS induced necrotizing soft tissue infection model; format: in vivo, C57BL6 mice
Method: (§3) A well-established model of necrotizing soft tissue infection was adapted for this study (^7,^9). In brief, 100 μl of a mid logarithmic growth phase (approximately 10^7 c.f.u.) of GAS was mixed with an equal volume of sterile Cytodex beads (Sigma-Aldrich) and injected subcutaneously into the flank of 8- to 12-week-old WT and Hepc^Δkerat14 male littermates, previously shaved (veet hair removal cream). Weight loss and lesion size of mice were daily estimated. After 96 hours mice were sacrificed, skin necrotic ulcers, spleen, and blood (via retro orbital bleeding) were recovered and homogenized in 1:2 mg/μl of sterile PBS. Serial dilutions of tissue homogenate were stretched on THA plates, in order to enumerate living c.f.u.
For therapeutic treatment C57BL6 mice were infected as described above. One day after infection, animals were subcutaneously injected with PBS (control) or 1 μg of hepcidin (peptide international). Mice were treated again at 48 and 72 hours with 500 ng of hepc-25. After 96 hours mice were sacrificed, spleens were taken, homogenized for c.f.u. enumeration.

[6] = system: GAS; experiment: CXCL1 rescue experiment in GAS-infected Hepc Δkerat mice; format: in vivo; details: subcutaneous 1 μg/mouse daily, four days after GAS injection
Method: as §3
For rescue experiment WT and Hepc^Δkerat littermates were subcutaneously infected with 10^7 c.f.u. of GAS with mock or 1 μg/mouse of rCXCL1 (R&D system, 1395-KC-025/CF). Mice were intralesionally injected again at 24, 48 and 72 h with mock or 1 μg of rCXCL1.

`C[C@@H]1C[C@@H]([C@H](O)CC2CC(=O)NC(=O)C2)C(=O)[C@@H](C)C1` [Cycloheximide, cycloheximide, reference compound] was tested, and the “effect of inhibitor on hepcidin-induced CXCL1 production” value [1] was “significantly reduced”.

In the case of LL-37 [reference compound], the “bacteriostatic effect against GAS (inhibition of GAS growth)” value [2] is reported as “able to prevent the growth of the bacteria” and the “bactericidal activity against GAS (bacterial titers vs control)” value [3] is reported as “significant reduction in bacterial titers”.

“hepcidin: mature 25-amino acid form of hepcidin (hepc-25), obtained from Peptide International” was tested, and the “bacteriostatic effect against GAS (inhibition of GAS growth)” value [2] was “no antimicrobial activity; also recorded: no direct bacteriostatic effect”, the “CXCL1 expression at the mRNA level” value [4] was “did not increase” and the “treated mice with no systemic bacterial dissemination (bacteria in the spleen)” value ([5]; GAS-infected mice, 96 hours after infection, all control mice disseminated) was 7 out of 9. For the same molecule, the “weight (marker of morbidity)” value ([5]; GAS-infected mice, sc 1 μg at 24 h then 500 ng at 48 and 72 h, 96 hours, vs mock) was “did not loose weight”, the “signs of morbidity (rough hair coat, hunched posture)” value ([5]; GAS-infected mice, sc 1 μg at 24 h then 500 ng at 48 and 72 h, vs mock) was “didn't present any signs of morbidity” and the “systemic spread of infection” value ([5]; local injection at the site of infection (FIG. 2F)) was “prevents systemic spread of infection”. The “production of other tested inflammatory cytokines” value ([1]; murine primary keratinocytes, 360 nM and 3.6 μM hepcidin) was “not”, the “CXCL1 levels in the cell culture supernatant” value ([1]; murine primary keratinocytes, 360 nM) was 150 pg/mL and the “CXCL1 levels in the cell culture supernatant” value ([1]; murine primary keratinocytes, 3.6 μM) was 50 pg/mL. For the same molecule, the “CXCL1 production by keratinocytes” value ([1]; murine primary keratinocytes) was “dose dependent increase” and the “bactericidal activity against GAS (bacterial titers vs control)” value [3] was “no effect”.

“mini-hepcidin: murine mini-hepcidin consisting in the 9 N-terminal amino acids of hepcidin (DTNFPICIF; Hepcidin; UniProt Q9EQ21 59-67, looked up, fragment) [reference compound]” was tested, and the “CXCL1 production by keratinocytes” value ([1]; murine primary keratinocytes) was “not able to trigger CXCL1 production” and the “CXCL1 production by keratinocytes” value ([1]; murine primary keratinocytes, listed as Mini-hepcidin) was “does bot promote CXCL1 production”.

With `Cc1c2oc3c(C)ccc(C(=O)N[C@@H]4C(=O)N[C@H](C(C)C)C(=O)N5CCC[C@H]5C(=O)N(C)CC(=O)N(C)[C@@H](C(C)C)C(=O)O[C@@H]4C)c3nc-2c(C(=O)N[C@@H]2C(=O)N[C@H](C(C)C)C(=O)N3CCC[C@H]3C(=O)N(C)CC(=O)N(C)[C@@H](C(C)C)C(=O)O[C@@H]2C)c(N)c1=O` [actinomycin D, actinomycinD, reference compound] (I: T[dV]P[Sar][NMeV] / II: T[dV]P[Sar][NMeV]; ester I:1-I:C, II:1-II:C; linker I:N-II:N via Actinocin(9to1)) the “effect of inhibitor on hepcidin-induced CXCL1 production” value [1] was “not”.

B1: CXCL1: rCXCL1 (R&D system, 1395-KC-025/CF), key neutrophil chemokine (protein, UniProt P12850 25-96, looked up)
Growth-regulated alpha protein: APIANELRCQCLQTMAGIHLKNIQSLKVLPSGPHCTQTEVIATLKNGREACLDPEAPLVQKIVQKMLKGVPK
With B1 the “number of bacteria in skin of Hepc Δkerat mice” value [6] was “decreased the number of bacteria at the level of WT mice”.
